The assay addresses T1, acid ceramidase (Homo sapiens, UniProt Q13510).
T1 construct: host or cells: unnamed cells; lysate 'enriched with acid ceramidase'
T1 sequence (Q13510 22-395): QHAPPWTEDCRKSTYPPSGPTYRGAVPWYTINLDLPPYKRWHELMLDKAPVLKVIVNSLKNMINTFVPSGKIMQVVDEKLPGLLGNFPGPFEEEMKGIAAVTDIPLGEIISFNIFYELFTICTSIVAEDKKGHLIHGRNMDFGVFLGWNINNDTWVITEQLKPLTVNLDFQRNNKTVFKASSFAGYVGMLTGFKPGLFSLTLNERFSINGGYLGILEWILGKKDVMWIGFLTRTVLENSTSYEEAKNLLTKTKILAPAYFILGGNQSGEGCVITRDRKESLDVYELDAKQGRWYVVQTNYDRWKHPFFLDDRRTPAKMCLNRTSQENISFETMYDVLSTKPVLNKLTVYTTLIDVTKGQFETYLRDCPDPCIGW
Kind of assay: acid ceramidase fluorescent intensity assay with fluorogenic substrate Rbm 14-12. It is filed as biochemical. The conditions noted are these: cell lysates enriched with acid ceramidase, 1 hour pre-incubation, pH 4.5, substrate Rbm 14-12 at 6.3 μM, room temperature, 1 or two hours; read-out: average IC50 value for the 1 and 2 hour time points. How it is done: Inhibition of acid ceramidase activity by compound 25 of Table 1 was evaluated in a fluorescent intensity assay using a fluorogenic substrate Rbm 14-12 […]. Compound 25 was incubated with cell lysates enriched with acid ceramidase for 1 hour in an assay buffer containing 50 mM NaOAc and 100 mM NaCl at pH 4.5. The reaction was initiated by the addition of the substrate at a final concentration of 6.3 μM and the mixture was incubated at room temperature for 1 or two hours. At the appropriate time, the reaction was quenched by the addition of methanol and treated with NaIO4 (fresh 2.5 mg/ml solution was made in 100 mM glycine/NaOH buffer, pH 10.6), followed by incubation for 1 hour at room temperature. Fluorescent intensity was measured using a plate reader at ex 355 nm and em 460 nm.

The structures appear in SMILES notation.

`O=C(NCCCCc1ccccc1)n1c(=O)oc2cc(-c3ccc(F)cc3)ccc21` [compound 25, 6-(4-fluorophenyl)-2-oxo-N-(4-phenylbutyl)-1,3-benzoxazole-3-carboxamide]: the IC50 (usually the concentration at which inhibition is half-maximal) was in the range of 0.25 to 0.5 µM.

(Values after patent US20180369211A1, “METHODS AND COMPOSITIONS FOR TREATING NEURODEGENERATIVE DISORDERS” (Lysosomal Therapeutics Inc., priority 2016, published 2018).)
